Laboratory results published in PubChem BioAssay (NCI).
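96-well plates; 48 h exposure; 5 concentrations. Endpoints by linear interpolation between flanking doses. Not reached: highest tested concentration assigned. Here, GI50 denotes the concentration required for 50% inhibition of growth. TGI denotes the concentration required for complete inhibition of growth.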

Columns and labels:
Test in all cases: NCI-60 cell line screen, 48 h
[1] = test system: MOLT-4 leukemia
[2] = test system: HT29 colon
[3] = test system: SF-268 CNS
[4] = test system: SNB-75 CNS
[5] = test system: LOX IMVI melanoma
[6] = test system: SW-620 colon
[7] = test system: SF-295 CNS
[8] = test system: EKVX NSCLC
[9] = test system: ACHN renal
[10] = test system: SNB-19 CNS

`CCN(CC)C(=O)C/C(C)=N/NC(=O)c1ccncc1` gave a TGI [1] of over 100 µM, a TGI [2] of over 100 µM and a TGI [3] of over 100 µM. The TGI [4] was over 100 µM, the TGI [5] was over 100 µM and the TGI [6] was over 100 µM. The TGI [7] was over 100 µM and the TGI [8] was over 100 µM.

`COC(=O)C1=C(c2ccc3c(c2)OCO3)O[C@H](c2ccc3c(c2)OCO3)[C@H]1COC(C)=O` was tested, and the TGI [1] was over 100 µM, the TGI [2] was over 100 µM and the TGI [3] was over 100 µM. It also gave a TGI [9] of over 100 µM, a TGI [4] of over 100 µM and a TGI [5] of over 100 µM. It also gave a TGI [6] of over 100 µM, a TGI [7] of over 100 µM and a TGI [8] of over 100 µM.

Compound `CCOC(=O)NC(=O)c1cn(CCCOC(=O)NCCCCCCNC(=O)OCCCn2c(=O)c(C(=O)NC(=O)OCC)cn(C)c2=O)c(=O)n(C)c1=O` has a TGI [1] of over 100 µM, a TGI [2] of over 100 µM and a TGI [3] of over 100 µM. The TGI [9] was over 100 µM, the TGI [4] was 93.9 µM and the TGI [5] was over 100 µM. It also gave a TGI [6] of over 100 µM.

`CC(C)(C)OC(=O)N(CCCN(CCn1c2c(c3ccccc3c1=O)C(=O)c1ccccc1-2)C(=O)OC(C)(C)C)CCn1c2c(c3ccccc3c1=O)C(=O)c1ccccc1-2` showed a GI50 [1] of 6.46 µM, a TGI [1] of 16 µM and a GI50 [2] of over 50 µM. It also gave a TGI [2] of over 50 µM, a GI50 [3] of 28.2 µM and a TGI [3] of over 50 µM. The GI50 [10] was over 50 µM, the TGI [10] was over 50 µM and the GI50 [9] was 14.5 µM. For the same compound, the TGI [9] was over 50 µM, the GI50 [5] was over 50 µM and the TGI [5] was over 50 µM. The GI50 [6] was 40.7 µM, the TGI [6] was over 50 µM and the GI50 [7] was 15.3 µM. It also gave a TGI [7] of over 50 µM, a GI50 [8] of over 50 µM and a TGI [8] of over 50 µM.

`NCCCCn1c2c(c3ccccc3c1=O)C(=O)c1ccccc1-2` was tested, and the GI50 [2] was 0.163 µM, the GI50 [3] was 0.208 µM and the TGI [3] was 1.86 µM. It also gave a GI50 [10] of 0.389 µM, a TGI [10] of 12.2 µM and a GI50 [9] of 0.0161 µM. It also gave a TGI [9] of 0.123 µM, a GI50 [4] of 0.372 µM and a TGI [4] of 2.37 µM. It also gave a GI50 [5] of 0.0269 µM, a TGI [5] of 0.346 µM and a GI50 [6] of under 0.0185 µM. It also gave a TGI [6] of 1.38 µM, a GI50 [7] of 0.0726 µM and a TGI [7] of 0.753 µM. For the same compound, the GI50 [8] was 1.21 µM and the TGI [8] was 4.62 µM.

With `C#CC[C@]12CC(=O)CC[C@H]1CC(=O)C2` the TGI [1] was over 100 µM, the TGI [3] was over 100 µM and the TGI [10] was over 100 µM. The TGI [9] was over 100 µM, the TGI [4] was over 100 µM and the TGI [6] was over 100 µM.

`CN(C)C(=S)/N=c1\ss/c(=N\C(=S)N(C)C)n1-c1ccc2c(c1)OCO2` gave a TGI [3] of over 100 µM, a TGI [10] of over 100 µM and a TGI [9] of over 100 µM. It also gave a TGI [4] of over 100 µM, a TGI [5] of over 100 µM and a TGI [6] of over 100 µM. The TGI [7] was over 100 µM and the TGI [8] was over 100 µM.

With `N#Cc1cnsc1` the TGI [1] was over 100 µM, the TGI [2] was over 100 µM and the TGI [3] was over 100 µM. For the same compound, the TGI [9] was over 100 µM, the TGI [4] was over 100 µM and the TGI [5] was over 100 µM. It also gave a TGI [6] of over 100 µM, a TGI [7] of over 100 µM and a TGI [8] of over 100 µM.

`CCCCNC(=O)NS(=O)(=O)c1ccc(N2N=C(c3ccc(C)cc3C)CC2c2ccc(N(C)C)cc2)cc1` (stereo unspecified) gave a GI50 [1] of 3.61 µM, a TGI [1] of over 100 µM and a GI50 [2] of 4.2 µM. It also gave a TGI [2] of 19.9 µM, a GI50 [3] of 5.73 µM and a TGI [3] of over 100 µM. For the same compound, the GI50 [10] was 4.59 µM, the TGI [10] was over 100 µM and the GI50 [9] was 3.93 µM. For the same compound, the TGI [9] was over 100 µM, the GI50 [4] was 3.81 µM and the TGI [4] was over 100 µM. It also gave a GI50 [5] of 4.4 µM, a TGI [5] of 16.5 µM and a GI50 [6] of 4.14 µM. For the same compound, the TGI [6] was over 100 µM.

Compound `O=C(/C=C/c1ccccc1Cl)c1ccccc1Cl` has a TGI [1] of 60 µM, a TGI [2] of 41.3 µM and a TGI [3] of 50.5 µM. It also gave a TGI [10] of 32.8 µM, a TGI [9] of 31.1 µM and a TGI [4] of 74.9 µM. The TGI [6] was 26.2 µM, the TGI [7] was 51.2 µM and the TGI [8] was 44.4 µM.

`COc1cc2c3c(n(CCCBr)c(=O)c2cc1OC)-c1ccc(NC(C)=O)cc1C3=O` was tested, and the GI50 [2] was 2.99 µM, the TGI [2] was over 100 µM and the GI50 [3] was 2.11 µM. It also gave a TGI [3] of over 100 µM, a GI50 [10] of 3.19 µM and a TGI [10] of over 100 µM. It also gave a GI50 [9] of 3.07 µM, a TGI [9] of over 100 µM and a GI50 [4] of 12.1 µM. For the same compound, the TGI [4] was 54 µM, the GI50 [5] was 2.1 µM and the TGI [5] was 15 µM. It also gave a GI50 [6] of 0.963 µM, a TGI [6] of over 100 µM and a GI50 [7] of 0.828 µM. The TGI [7] was 11.5 µM, the GI50 [8] was 47.8 µM and the TGI [8] was over 100 µM.

Compound `Cc1ccc(N=NC(C(=O)c2ccccc2)C(=O)c2ccccc2)cc1` has a TGI [1] of 63 µM, a TGI [2] of 62.2 µM and a TGI [3] of over 100 µM. The TGI [10] was 86.4 µM, the TGI [9] was over 100 µM and the TGI [4] was 93.4 µM. It also gave a TGI [6] of over 100 µM, a TGI [7] of over 100 µM and a TGI [8] of over 100 µM.

Work on `CC(C)=[CH][Sb]([Br])([CH]=C(C)C)([CH]=C(C)C)[CH]=C(C)C` yielded a GI50 [1] of 18.8 µM, a TGI [1] of over 100 µM and a GI50 [2] of 15.1 µM. The TGI [2] was over 100 µM, the GI50 [3] was 11.7 µM and the TGI [3] was 74.5 µM. It also gave a GI50 [10] of 14.7 µM, a TGI [10] of 89.4 µM and a GI50 [9] of 28.8 µM. It also gave a TGI [9] of over 100 µM, a GI50 [5] of 31.6 µM and a TGI [5] of over 100 µM. The GI50 [6] was 26.4 µM, the TGI [6] was over 100 µM and the GI50 [7] was 17.3 µM. The TGI [7] was 53.4 µM, the GI50 [8] was 4.88 µM and the TGI [8] was 88.6 µM.

Compound `COc1cc2c3c(n(CCCCl)c(=O)c2cc1OC)-c1ccccc1C3=O` has a GI50 [1] of 2.18 µM, a TGI [1] of 96.6 µM and a GI50 [3] of over 100 µM. The TGI [3] was over 100 µM, the GI50 [10] was over 100 µM and the TGI [10] was over 100 µM. It also gave a GI50 [9] of 19.2 µM, a TGI [9] of over 100 µM and a GI50 [5] of 8.83 µM. For the same compound, the TGI [5] was over 100 µM, the GI50 [7] was 0.845 µM and the TGI [7] was 13.3 µM. The GI50 [8] was over 100 µM and the TGI [8] was over 100 µM.
